Results as given in patent US20140205662A1, “SYSTEM AND METHOD FOR […] TIMED LOCAL […] OF A COMBINATION PHARMACEUTICAL PREPARATION FOR ORAL THERAPY” (The Research Foundation for The State University of New York, priority 2010, published 2014).

Tested on: gingival fibroblasts
Description: To determine whether the co-administration of these two compounds was cytotoxic, the following experiments were carried out.

With `C[C@H]1c2cccc(O)c2C(=O)C2=C(O)[C@]3(O)C(=O)C(C(N)=O)=C(O)[C@@H](N(C)C)[C@@H]3[C@@H](O)[C@@H]21` [doxycycline] the “cytotoxicity (in words)” value was “relatively increasing cytotoxicity with increasing concentration” and the relative cytotoxicity was 0 to 0.231 mg/mL.
With `CC(C(=O)O)c1ccc(-c2ccccc2)c(F)c1` (stereo not shown) [flurbiprofen] the “cytotoxicity (in words)” value was “relatively low cytotoxicity” and the relative cytotoxicity was 0 to 0.031 mg/mL.
